According to the supplement of paper PMC10307832:

How the values were obtained:
Test in all cases: relative viability (nuclei count vs DMSO), 5 days (fraction); higher = more cells survive
Lestaurtinib + Foretinib = compound: C[C@]12O[C@H](C[C@]1(O)CO)n1c3ccccc3c3c4c(c5c6ccccc6n2c5c31)CNC4=O [Lestaurtinib] + COc1cc2c(Oc3ccc(NC(=O)C4(C(=O)Nc5ccc(F)cc5)CC4)cc3F)ccnc2cc1OCCCN1CCOCC1 [Foretinib] (partner 0.25 µM)
Outline: (§1)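 Five library-drug doses in √10 steps were combined with a fixed anchor-drug dose, or a single drug was given alone, by pin tool to lung cancer cell lines in 1536-well plates the day after seeding. Nuclei were stained and counted after 5 days. Relative viability is the nuclei count in treated wells over that in vehicle wells, taken as the median of duplicate plates.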

Lestaurtinib + Alpelisib = compound: C[C@]12O[C@H](C[C@]1(O)CO)n1c3ccccc3c3c4c(c5c6ccccc6n2c5c31)CNC4=O [Lestaurtinib] + Cc1nc(NC(=O)N2CCC[C@H]2C(N)=O)sc1-c1ccnc(C(C)(C)C(F)(F)F)c1 [Alpelisib] (partner 2 µM)
Outline: as §1

TPCA-1 + Navitoclax = compound: C1=CC(=CC=C1C2=CC(=C(S2)NC(=O)N)C(=O)N)F [TPCA-1] + CC1(C)CCC(c2ccc(Cl)cc2)=C(CN2CCN(c3ccc(C(=O)NS(=O)(=O)c4ccc(N[C@H](CCN5CCOCC5)CSc5ccccc5)c(S(=O)(=O)C(F)(F)F)c4)cc3)CC2)C1 [Navitoclax] (partner 0.5 µM)
Outline: as §1

[1] = compound: C1/C(=C\C2=CC=CS2)/C(=O)/C(=C/C3=CC=CS3)/C1 + C[C@]1(O)C[C@@H](c2nc(-c3ccc4ccc(-c5ccccc5)nc4c3)c3c(N)nccn32)C1 [Linsitinib] (partner 1 µM)
Outline: as §1

## RERF-LC-KJ
Lestaurtinib + Foretinib; first compound 0.005 µM
  relative viability: 0.914
Lestaurtinib + Foretinib; first compound 0.01581 µM
  relative viability: 1.04
Lestaurtinib + Foretinib; first compound 0.05 µM
  relative viability: 0.762
Lestaurtinib + Foretinib; first compound 0.1581 µM
  relative viability: 0.749
Lestaurtinib + Foretinib; first compound 0.5 µM
  relative viability: 0.816
Lestaurtinib + Alpelisib; first compound 0.005 µM
  relative viability: 0.888
Lestaurtinib + Alpelisib; first compound 0.01581 µM
  relative viability: 0.689
Lestaurtinib + Alpelisib; first compound 0.05 µM
  relative viability: 0.591
Lestaurtinib + Alpelisib; first compound 0.1581 µM
  relative viability: 0.535
Lestaurtinib + Alpelisib; first compound 0.5 µM
  relative viability: 0.445
TPCA-1 + Navitoclax; first compound 0.04 µM
  relative viability: 0.967
TPCA-1 + Navitoclax; first compound 0.1265 µM
  relative viability: 0.883
TPCA-1 + Navitoclax; first compound 0.4 µM
  relative viability: 1.06
TPCA-1 + Navitoclax; first compound 1.265 µM
  relative viability: 0.866
TPCA-1 + Navitoclax; first compound 4 µM
  relative viability: 0.766
[1]; first compound 0.2 µM
  relative viability: 0.903
[1]; first compound 0.6325 µM
  relative viability: 0.922
[1]; first compound 2 µM
  relative viability: 0.801
[1]; first compound 6.325 µM
  relative viability: 0.812
[1]; first compound 20 µM
  relative viability: 0.794

## HCC-15
Lestaurtinib + Foretinib; first compound 0.005 µM
  relative viability: 1.11
Lestaurtinib + Foretinib; first compound 0.01581 µM
  relative viability: 1.13
Lestaurtinib + Foretinib; first compound 0.05 µM
  relative viability: 0.989
Lestaurtinib + Foretinib; first compound 0.1581 µM
  relative viability: 0.744
Lestaurtinib + Foretinib; first compound 0.5 µM
  relative viability: 0.139
Lestaurtinib + Alpelisib; first compound 0.005 µM
  relative viability: 1.02
Lestaurtinib + Alpelisib; first compound 0.01581 µM
  relative viability: 1.06
Lestaurtinib + Alpelisib; first compound 0.05 µM
  relative viability: 0.819
Lestaurtinib + Alpelisib; first compound 0.1581 µM
  relative viability: 0.583
Lestaurtinib + Alpelisib; first compound 0.5 µM
  relative viability: 0.161
TPCA-1 + Navitoclax; first compound 0.04 µM
  relative viability: 0.825
TPCA-1 + Navitoclax; first compound 0.1265 µM
  relative viability: 0.64
TPCA-1 + Navitoclax; first compound 0.4 µM
  relative viability: 0.682
TPCA-1 + Navitoclax; first compound 1.265 µM
  relative viability: 0.686
TPCA-1 + Navitoclax; first compound 4 µM
  relative viability: 0.519
[1]; first compound 0.2 µM
  relative viability: 0.899
[1]; first compound 0.6325 µM
  relative viability: 0.921
[1]; first compound 2 µM
  relative viability: 0.846
[1]; first compound 6.325 µM
  relative viability: 0.734
[1]; first compound 20 µM
  relative viability: 0.888

## H3255
Lestaurtinib + Foretinib; first compound 0.005 µM
  relative viability: 0.981
Lestaurtinib + Foretinib; first compound 0.01581 µM
  relative viability: 0.888
Lestaurtinib + Foretinib; first compound 0.05 µM
  relative viability: 0.898
Lestaurtinib + Foretinib; first compound 0.1581 µM
  relative viability: 0.703
Lestaurtinib + Foretinib; first compound 0.5 µM
  relative viability: 0.419
Lestaurtinib + Alpelisib; first compound 0.005 µM
  relative viability: 0.686
Lestaurtinib + Alpelisib; first compound 0.01581 µM
  relative viability: 0.739
Lestaurtinib + Alpelisib; first compound 0.05 µM
  relative viability: 0.541
Lestaurtinib + Alpelisib; first compound 0.1581 µM
  relative viability: 0.385
Lestaurtinib + Alpelisib; first compound 0.5 µM
  relative viability: 0.296
TPCA-1 + Navitoclax; first compound 0.04 µM
  relative viability: 0.536
TPCA-1 + Navitoclax; first compound 0.1265 µM
  relative viability: 0.507
TPCA-1 + Navitoclax; first compound 0.4 µM
  relative viability: 0.473
TPCA-1 + Navitoclax; first compound 1.265 µM
  relative viability: 0.396
TPCA-1 + Navitoclax; first compound 4 µM
  relative viability: 0.242
[1]; first compound 0.2 µM
  relative viability: 0.949
[1]; first compound 0.6325 µM
  relative viability: 0.92
[1]; first compound 2 µM
  relative viability: 0.909
[1]; first compound 6.325 µM
  relative viability: 0.728
[1]; first compound 20 µM
  relative viability: 0.913

## NCI-H596
Lestaurtinib + Foretinib; first compound 0.005 µM
  relative viability: 0.724
Lestaurtinib + Foretinib; first compound 0.01581 µM
  relative viability: 0.946
Lestaurtinib + Foretinib; first compound 0.05 µM
  relative viability: 0.82
Lestaurtinib + Foretinib; first compound 0.1581 µM
  relative viability: 1.1
Lestaurtinib + Foretinib; first compound 0.5 µM
  relative viability: 0.671
Lestaurtinib + Alpelisib; first compound 0.005 µM
  relative viability: 0.409
Lestaurtinib + Alpelisib; first compound 0.01581 µM
  relative viability: 0.484
Lestaurtinib + Alpelisib; first compound 0.05 µM
  relative viability: 0.464
Lestaurtinib + Alpelisib; first compound 0.1581 µM
  relative viability: 0.624
Lestaurtinib + Alpelisib; first compound 0.5 µM
  relative viability: 0.432
TPCA-1 + Navitoclax; first compound 0.04 µM
  relative viability: 0.88
TPCA-1 + Navitoclax; first compound 0.1265 µM
  relative viability: 0.932
TPCA-1 + Navitoclax; first compound 0.4 µM
  relative viability: 1.07
TPCA-1 + Navitoclax; first compound 1.265 µM
  relative viability: 0.996
TPCA-1 + Navitoclax; first compound 4 µM
  relative viability: 1.07
[1]; first compound 0.2 µM
  relative viability: 1.15
[1]; first compound 0.6325 µM
  relative viability: 1.04
[1]; first compound 2 µM
  relative viability: 1.02
[1]; first compound 6.325 µM
  relative viability: 1.01
[1]; first compound 20 µM
  relative viability: 1.04

## NCI-H2087
Lestaurtinib + Foretinib; first compound 0.005 µM
  relative viability: 1.13
Lestaurtinib + Foretinib; first compound 0.01581 µM
  relative viability: 1.31
Lestaurtinib + Foretinib; first compound 0.05 µM
  relative viability: 0.848
Lestaurtinib + Foretinib; first compound 0.1581 µM
  relative viability: 0.703
Lestaurtinib + Foretinib; first compound 0.5 µM
  relative viability: 0.266
Lestaurtinib + Alpelisib; first compound 0.005 µM
  relative viability: 1.15
Lestaurtinib + Alpelisib; first compound 0.01581 µM
  relative viability: 1.08
Lestaurtinib + Alpelisib; first compound 0.05 µM
  relative viability: 0.83
Lestaurtinib + Alpelisib; first compound 0.1581 µM
  relative viability: 0.783
Lestaurtinib + Alpelisib; first compound 0.5 µM
  relative viability: 0.325
TPCA-1 + Navitoclax; first compound 0.04 µM
  relative viability: 1.02
TPCA-1 + Navitoclax; first compound 0.1265 µM
  relative viability: 0.818
TPCA-1 + Navitoclax; first compound 0.4 µM
  relative viability: 0.936
TPCA-1 + Navitoclax; first compound 1.265 µM
  relative viability: 0.791
TPCA-1 + Navitoclax; first compound 4 µM
  relative viability: 0.356
[1]; first compound 0.2 µM
  relative viability: 1.06
[1]; first compound 0.6325 µM
  relative viability: 1.05
[1]; first compound 2 µM
  relative viability: 0.928
[1]; first compound 6.325 µM
  relative viability: 0.678
[1]; first compound 20 µM
  relative viability: 0.936

## EMC-BAC-2
Lestaurtinib + Foretinib; first compound 0.005 µM
  relative viability: 0.908
Lestaurtinib + Foretinib; first compound 0.01581 µM
  relative viability: 0.737
Lestaurtinib + Foretinib; first compound 0.05 µM
  relative viability: 0.78
Lestaurtinib + Foretinib; first compound 0.1581 µM
  relative viability: 0.382
Lestaurtinib + Foretinib; first compound 0.5 µM
  relative viability: 0.29
Lestaurtinib + Alpelisib; first compound 0.005 µM
  relative viability: 0.786
Lestaurtinib + Alpelisib; first compound 0.01581 µM
  relative viability: 0.76
Lestaurtinib + Alpelisib; first compound 0.05 µM
  relative viability: 0.541
Lestaurtinib + Alpelisib; first compound 0.1581 µM
  relative viability: 0.398
Lestaurtinib + Alpelisib; first compound 0.5 µM
  relative viability: 0.216
TPCA-1 + Navitoclax; first compound 0.04 µM
  relative viability: 1.21
TPCA-1 + Navitoclax; first compound 0.1265 µM
  relative viability: 1.19
TPCA-1 + Navitoclax; first compound 0.4 µM
  relative viability: 1.14
TPCA-1 + Navitoclax; first compound 1.265 µM
  relative viability: 1.13
TPCA-1 + Navitoclax; first compound 4 µM
  relative viability: 1.01
[1]; first compound 0.2 µM
  relative viability: 0.811
[1]; first compound 0.6325 µM
  relative viability: 0.787
[1]; first compound 2 µM
  relative viability: 0.84
[1]; first compound 6.325 µM
  relative viability: 0.761
[1]; first compound 20 µM
  relative viability: 0.792

## NCI-H1355
Lestaurtinib + Foretinib; first compound 0.005 µM
  relative viability: 1.03
Lestaurtinib + Foretinib; first compound 0.01581 µM
  relative viability: 1.08
Lestaurtinib + Foretinib; first compound 0.05 µM
  relative viability: 0.696
Lestaurtinib + Foretinib; first compound 0.1581 µM
  relative viability: 0.802
Lestaurtinib + Foretinib; first compound 0.5 µM
  relative viability: 0.356
Lestaurtinib + Alpelisib; first compound 0.005 µM
  relative viability: 0.849
Lestaurtinib + Alpelisib; first compound 0.01581 µM
  relative viability: 0.885
Lestaurtinib + Alpelisib; first compound 0.05 µM
  relative viability: 0.682
Lestaurtinib + Alpelisib; first compound 0.1581 µM
  relative viability: 0.392
Lestaurtinib + Alpelisib; first compound 0.5 µM
  relative viability: 0.303
TPCA-1 + Navitoclax; first compound 0.04 µM
  relative viability: 1.02
TPCA-1 + Navitoclax; first compound 0.1265 µM
  relative viability: 0.903
TPCA-1 + Navitoclax; first compound 0.4 µM
  relative viability: 0.912
TPCA-1 + Navitoclax; first compound 1.265 µM
  relative viability: 0.826
TPCA-1 + Navitoclax; first compound 4 µM
  relative viability: 0.686
[1]; first compound 0.2 µM
  relative viability: 0.906
[1]; first compound 0.6325 µM
  relative viability: 0.744
[1]; first compound 2 µM
  relative viability: 0.863
[1]; first compound 6.325 µM
  relative viability: 0.666
[1]; first compound 20 µM
  relative viability: 0.758
